# Data: US7622441B2, “Sustained release pharmaceutical compounds to prevent abuse of controlled substances” (Shire LLC, priority 2002, dated 2009)
# “And” between values parts separate entries of the source, which are not always exact repeats. Equal entries are not always repeated. Structures can show the parent of a compound that is named as a salt. Where two headings read alike, the source gives them in different places. Where a SMILES comes first, the peptide text is derived from it. Where no end group is shown, it is not given here. [ ]: non-standard residue; d: D form. The star is where a group is joined. ξ: configuration not given here. X2 = COc1ccc2c3c1OC1C(O*)=CCC4C(C2)N(C)CCC314; ξL = CC(C)CC(N)C(=O)O
# Key:
# [1] = Stability of narcotic conjugates in water (narcotic release, abuse resistance tests); assay type: physicochemical; conditions: for H2O (1 h, 90 C.) / H2O (24 h, RT): numbers based upon narcotic release; for % Release of Narcotic in Water: neutral pH
# Description: It is also possible to further stabilize any unstable conjugates by tethering to a larger peptide. […] The conjugates are also stable at a wide range of pH's.
# [2] = Pharmacokinetics of peptide-amphetamine conjugates by oral administration (serum amphetamine by ELISA); conditions: rat
# [3] = Pharmacokinetics of narcotic conjugates by oral administration (serum hydrocodone/oxycodone by ELISA); conditions: for Shape of the Curve: rat serum concentration curve vs. parent drug; for Peak Time / % AUC / % Cmax: rat serum; for Peak Time: multiple of parent drug's peak time; for % AUC / % Cmax: vs. equivalent dose of parent drug
# male Sprague-Dawley rats = assay: Analgesia by paw lick latency (PLL), hot plate nociceptive model, subcutaneous injection; assay type: in vivo; parameters: Paw Lick Latency: unit not given beside the values; conditions: for PLL: rat hot plate, cutoff time of 45 seconds; for Percent: PLL above basal level compared to HC; for Delta: basal PLL of untreated rats subtracted
# [4] = intranasal; for Comments (curve) / Peak Time / % AUC / % Cmax: serum, buffer PBS; for Peak Time: multiple of hydrocodone's peak time; for % AUC / % Cmax: vs. hydrocodone
# in vivo = conditions: Sprague-Dawley, rat, po, 3.6 mg, Serum Concentrations of Individual Rats, oral capsule, dose equal to 3.6 mg naltrexone
# [5] = Serum naltrexone levels of rats orally dosed with BB301 polyserine-naltrexone conjugate vs. naltrexone (ELISA); conditions: rat; for Serum Concentrations of Individual Rats: equal dose (3.6 mg naltrexone)
# [6] = rat, oral capsule; 2 hours was the first measurement
# [7] = male, Sprague-Dawley, in vivo, po
# [8] = Table 12, 15 min., equivalent dose
# [9] = Table 12, 30 min, equivalent dose
# [10] = Table 12, Basal (0 h), before treatment
# [11] = Sprague-Dawley, in vivo, po, 1.8 mg, Mean Serum Concentrations +/− SD, oral capsule, ½ dose (1.8 mg) at 0 hours and at […]
# [12] = Sprague-Dawley, in vivo, po, 3.6 mg
# [13] = Sprague-Dawley, in vivo, po, 3.6 mg, Mean Serum Concentrations +/− SD, oral capsule, equal dose at time zero
# [14] = oral solution in water, equivalent amount of amphetamine
molecule,measurement,setting,value
COc1ccc2c3c1OC1C(OC(=O)C(C)(C)N)=CCC4C(C2)N(C)CCC314 (centres unmarked) [Aib-HC],"H2O (1 h, 90 C.)",[1],45
same,"H2O (24 h, RT)",[1],0
"C[C@H](N)Cc1ccccc1 [Amphetamine, d-amphetamine sulfate, reference compound]",AUC(0-t),[2]; [7],530 ng·h/mL
same,Cmax,[2]; [7],193 ng/mL
"COc1ccc2c3c1OC1C(OC(=O)C4CCCN4C(=O)C(C)NC(=O)OC(C)(C)C)=CCC4C(C2)N(C)CCC314 (stereo not drawn) [Boc-Ala-Pro-HC, Boc-Ala-Pro-Hydrocodone]",Shape of the Curve,[3],++Clearance
same,Peak Time,[3],1X
same,% AUC,[3],60%
same,% Cmax,[3],97%
"COc1ccc2c3c1OC1C(OC(=O)C(CC(C)C)NC(=O)CNC(=O)CNC(=O)CNC(=O)CN)=CCC4C(C2)N(C)CCC314 (stereo not drawn) [GGGGL-HC, Gly-Gly-Gly-Gly-Leu-Hydrocodone] (H-GGGG[ξL]-X2)",Paw Lick Latency,"male Sprague-Dawley rats; Table 12, 60, 2× the equivalent dose",5
same,Paw Lick Latency,"male Sprague-Dawley rats; Table 12, 60, equivalent dose",3.6
same,Paw Lick Latency,"male Sprague-Dawley rats; Table 12, 15 min., 2× the equivalent dose",3
same,Paw Lick Latency,male Sprague-Dawley rats; [8],6.8
same,Paw Lick Latency,"male Sprague-Dawley rats; Table 12, 30 min, 2× the equivalent dose",5.6
same,Paw Lick Latency,male Sprague-Dawley rats; [9],5.6
same,Paw Lick Latency,male Sprague-Dawley rats; [10],7.5
same,Paw Lick Latency,"male Sprague-Dawley rats; Table 12, Basal (0 h), group given 2× the equivalent dose",2.2
"COc1ccc2c3c1OC1C(OC(=O)C(N)CCC(=O)O)=CCC4C(C2)N(C)CCC314 (centres unmarked) [Glu-HC, 6-O-Glu-Hydrocodone]",% Release of Narcotic in Water,[1]; 0 Hours,0%
same,% Release of Narcotic in Water,[1]; 1 Hour,4%
same,% Release of Narcotic in Water,[1]; 6 Hours,19%
same,% Release of Narcotic in Water,[1]; 24 Hours,42%
same,"H2O (1 h, 90 C.)",[1],100
same,"H2O (24 h, RT)",[1],79
same,Comments (curve),[4],Flat curve
same,Peak Time,[4],6X
same,% AUC,[4],60%
same,% Cmax,[4],55%
"COc1ccc2c3c1OC1C(OC(=O)CN)=CCC4C(C2)N(C)CCC314 (centres unmarked) [Gly-HC, 6-O-Gly-Hydrocodone]",% Release of Narcotic in Water,[1]; 0 Hours,6%
same,% Release of Narcotic in Water,[1]; 1 Hour,8%
same,% Release of Narcotic in Water,[1]; 6 Hours,11%
same,% Release of Narcotic in Water,[1]; 24 Hours,32%
same,"H2O (1 h, 90 C.)",[1],63
same,"H2O (24 h, RT)",[1],26
COc1ccc2c3c1O[C@H]1C(=O)CC[C@H]4[C@@H](C2)N(C)CC[C@]314 [Hydrocodone],PLL,"male Sprague-Dawley rats; 30 minutes, subcutaneous",40
same,Percent,male Sprague-Dawley rats; 30 minutes,100%
same,Delta,male Sprague-Dawley rats; 30 minutes,34
same,PLL,"male Sprague-Dawley rats; 45 minutes, subcutaneous",26.7
same,Percent,male Sprague-Dawley rats; 45 minutes,100%
same,Delta,male Sprague-Dawley rats; 45 minutes,19.9
same,Paw Lick Latency,"male Sprague-Dawley rats; Table 11, 15 min., subcutaneous",25.5
same,Paw Lick Latency,"male Sprague-Dawley rats; Table 11, 30 min, subcutaneous",42.4
same,Paw Lick Latency,"male Sprague-Dawley rats; Table 11, 45 min., subcutaneous",36.3
same,Paw Lick Latency,"male Sprague-Dawley rats; Table 11, 60 min., subcutaneous",26.6
same,Paw Lick Latency,"male Sprague-Dawley rats; Table 11, Basal (0 h), before treatment",5.5
same,Paw Lick Latency,"male Sprague-Dawley rats; Table 12, 60, equivalent dose",15.1
same,Paw Lick Latency,male Sprague-Dawley rats; [8],31.9
same,Paw Lick Latency,male Sprague-Dawley rats; [9],24.5
same,Paw Lick Latency,male Sprague-Dawley rats; [10],5.6
same,Comments (curve),[4],Rapid
same,Peak Time,[4],1X
same,% AUC,[4],100%
same,% Cmax,[4],100%
CCC(C)C(N)C(=O)OC1=CCC2C3Cc4ccc(OC)c5c4C2(CCN3C)C1O5 (centres unmarked) [Ile-HC],"H2O (1 h, 90 C.)",[1],46
same,"H2O (24 h, RT)",[1],16
COc1ccc2c3c1OC1C(OC(=O)C(CC(C)C)NC(=O)C(CC(C)C)NC(=O)C(N)CC(C)C)=CCC4C(C2)N(C)CCC314 (centres unmarked) [LLL-HC],Paw Lick Latency,"male Sprague-Dawley rats; Table 12, 60, equivalent dose",3.2
same,Paw Lick Latency,male Sprague-Dawley rats; [8],5.7
same,Paw Lick Latency,male Sprague-Dawley rats; [9],3.9
same,Paw Lick Latency,male Sprague-Dawley rats; [10],4.1
"COc1ccc2c3c1O[C@H]1C(OC(=O)[C@@H](N)CC(C)C)=CC[C@H]4[C@@H](C2)N(C)CC[C@]314 [Leu-HC, Leu-Hydrocodone]","H2O (1 h, 90 C.)",[1],49
same,"H2O (24 h, RT)",[1],10
O=C1CC[C@@]2(O)[C@H]3Cc4ccc(O)c5c4[C@@]2(CCN3CC2CC2)[C@H]1O5 [Naltrexone],concentration at 12 h,in vivo,1 ng/mL
same,concentration at 0.5 h,[5]; [11],72 ng/mL
same,concentration at 3 h,[5]; [11],13 ng/mL
same,concentration at 5 h,[5]; [11],4 ng/mL
same,concentration at 8 h,[5]; [11],68 ng/mL
same,concentration at 11.5 h,"[5]; Sprague-Dawley, in vivo, po, 1.8 mg, Mean Serum Concentrations +/− SD, oral capsule, ½ dose (1.8 mg) at 0 hours and at […], 11.5 hours",11 ng/mL
same,concentration at 24 h,"[5]; Sprague-Dawley, in vivo, po, 1.8 mg, Mean Serum Concentrations +/− SD, oral capsule, ½ dose (1.8 mg) at 0 hours and at […], 24 hours",6 ng/mL
same,AUC(0-t),[5]; [12],477 ng·h/mL
same,Cmax,[5]; [12],124 ng/mL
same,Tmax,[5]; [12],45 min
same,concentration at 0.5 h,[5]; [13],115 ng/mL
same,concentration at 3 h,[5]; [13],55 ng/mL
same,concentration at 5 h,[5]; [13],56 ng/mL
same,concentration at 8 h,[5]; [13],7 ng/mL
same,concentration at 12 h,"[5]; Sprague-Dawley, in vivo, po, 3.6 mg, Mean Serum Concentrations +/− SD, oral capsule, equal dose at time zero, 12 hours",2 ng/mL
same,concentration at 15 h,"[5]; Sprague-Dawley, in vivo, po, 3.6 mg, Mean Serum Concentrations +/− SD, oral capsule, equal dose at time zero, 15 hours",2 ng/mL
same,concentration at 24 h,"[5]; Sprague-Dawley, in vivo, po, 3.6 mg, Mean Serum Concentrations +/− SD, oral capsule, equal dose at time zero, 24 hours",2 ng/mL
same,time at which naltrexone serum levels spiked,"[5]; oral capsule, equal dose",0.5 h
same,Serum Concentrations of Individual Rats,"[5]; oral capsule, 12 hours",2 ng/mL
same,Serum Concentrations of Individual Rats,"[5]; oral capsule, 15 hours",1 ng/mL and 2 ng/mL
same,Serum Concentrations of Individual Rats,"[5]; oral capsule, 24 hours",1 ng/ml (2×) and 3 ng/ml and 2 ng/ml
same,time at which serum levels spiked,[6],2 h
CC(Cc1ccccc1)NC(=O)[C@@H](N)Cc1ccccc1 (some centres unmarked) [Phe-Amp],Cmax and AUC compared with those of the parent drug,[2]; oral,nearly equal
same,AUC 0-12 h,[2]; [14],505 ng·h/mL
same,Cmax,[2]; [14],175 +/− 77
COc1ccc2c3c1OC1C(OC(=O)C(N)Cc4ccccc4)=CCC4C(C2)N(C)CCC314 (centres unmarked) [Phe-HC],"H2O (1 h, 90 C.)",[1],54
"COc1ccc2c3c1O[C@H]1C(OC(=O)[C@@H]4CCCN4)=CC[C@H]4[C@@H](C2)N(C)CC[C@]314 [Pro-HC, 6-O-Pro-Hydrocodone]",% Release of Narcotic in Water,[1]; 0 Hours,4%
same,% Release of Narcotic in Water,[1]; 1 Hour,11%
same,% Release of Narcotic in Water,[1]; 6 Hours,25%
same,% Release of Narcotic in Water,[1]; 24 Hours,71%
same,"H2O (1 h, 90 C.)",[1],97
same,"H2O (24 h, RT)",[1],71
COc1ccc2c3c1OC1C(OC(=O)OC[C@H]4OC(O)C(O)[C@H]4O)=CCC4[C@@H](C2)N(C)CC[C@]314.Cl (some centres unmarked) [Ribose-HC],Shape of the Curve,[3],No change
same,Peak Time,[3],1X
same,% AUC,[3],106%
same,% Cmax,[3],132%
same,"H2O (24 h, RT)",[1],4
same,Comments (curve),[4],No change
same,Peak Time,[4],1X
same,% AUC,[4],20%
same,% Cmax,[4],34%
same,inhibition of IN absorption,[4]; compound still contained small amounts of free hydrocodone,approximately 80%
CC(Cc1ccccc1)NC(=O)C(N)CO (centres unmarked) [Ser-Amp],AUC 0-12 h,[2]; [14],290 ng·h/mL
same,Cmax,[2]; [14],146 +/− 85
same,Percent Amphetamine (AUC 0-12 h),"[2]; oral, AUC relative to amphetamine",55%
same,Percent Amphetamine (Cmax),"[2]; oral, Cmax relative to amphetamine",76%
COc1ccc2c3c1OC1C(OC(=O)C(N)CO)=CCC4C(C2)N(C)CCC314 (centres unmarked) [Ser-HC],"H2O (1 h, 90 C.)",[1],98
same,"H2O (24 h, RT)",[1],45
Ala-Pro-Hydrocodone [Ala-Pro-HC],"H2O (1 h, 90 C.)",[1],100
same,"H2O (24 h, RT)",[1],100
Glu5-HC: pentapeptide conjugate of hydrocodone (SEQ ID NO: 2) (EEEEE; also: hydrocodone conjugate),"H2O (1 h, 90 C.)",[1],53
